Earlier results in article PMC3161514 (Chemistry & biology, 2011).

Key:
[1] = test system: methicillin-resistant S. aureus (MRSA); conditions: MIC values among the lowest reported for lantibiotics, ref Ekkelenkamp, et al., 2005, Verhoef
[2] = test system: vancomycin-resistant Enterococci (VRE); conditions: MIC values among the lowest reported for lantibiotics, ref Ekkelenkamp, et al., 2005, Verhoef
[3] = test system: several strains of S. aureus; conditions: against several strains of S. aureus; ref Castiglione, et al., 2008

| Substance | Activity against MRSA [1] | Activity against VRE [2] | Potency relative to epidermin [3] |
| --- | --- | --- | --- |
| epilancin 15X | active | active | – |
| microbisporicin | – | – | two orders of magnitude more potent |
